Reference: patent publication US20090233841A1, “ANALGESIC CONJUGATES” (Regents of the University of Minnesota, priority 2005, published 2009)
Entries after “also recorded” stand apart in the source; their conditions may differ.

Legend:
male ICR mice [1] = test: Mouse radiant heat tail flick assay after acute ICV administration; format: in vivo; conditions: mouse tail flick, acute ICV administration; for ED50 nmol (95% C.L.), antinociceptive potency: conjugates and coadministration; for Ligand ED50 pmol (95% C.L.), antinociceptive potency: mu control ligands
Description: Acute drug administration. Drugs were dissolved in sterile saline (0.9% NaCl). Animals were anesthetized with halothane and drugs were administered with a Hamilton syringe mated to a shortened (3 mm) 27-g needle in a volume of 4 μl by ICV injection into the lateral cerebral ventricle (Haley et al., 1957). The injection site was 1.6 mm lateral and 0.6 mm caudal to bregma.
Antinociceptive testing. […] Mice were tested once before injection (control time).

male ICR mice [2] = test: Tolerance: tail flick ED50 after 3-day chronic ICV infusion (osmotic minipump); format: in vivo, mouse; conditions: for tolerance on chronic ICV administration: 3-day ICV infusion; for Chronic ED50 nmol (95% C.L.): compound chronically administered ICV for 3 days, then challenge doses; for Saline ED50 nmol (95% C.L.): saline chronically administered ICV for 3 days, then challenge doses of compound; for fold increase in ED50 value after chronic ICV infusion: three-day ICV infusion
Description: (§1) Chronic administration To investigate tolerance and dependence associated with these conjugates, chronic ICV administration studies were performed. The compound of interest was administered ICV via a cannula using an osmotic minipump for 3 days, as previously described (Gomori et al., 2003; Mashiko et al., 2003). Withdrawal was measured by administering naloxone (1 mg/kg; subcutaneous (sc)) and counting the naloxone-precipitated jumps for 10 minutes. Tolerance was determined by administering challenge doses of the compound after chronic infusion for 3 days, and determining the chronic ED50 value at that time.
(§2) Chronic ICV infusion. Osmotic minipumps (model 1003D, Alzet, Durect Corporation, Cupertino, Calif.) were filled with saline or the drug to be tested. The dose of each drug was twelve times its ED50 (nmol)/hour. The minipumps were connected by a 1.6-1.8 cm length of PE-60 tubing to a 3-mm long cannula (osmotic pump connector cannula, Plastics One, Roanoke, Va.) and primed in sterile saline at 37° C. overnight.
(§3) The next day, mice were anesthetized with Avertin (2,2,2-tribromoethanol (370 mg/kg, IP)/tert amyl alcohol (0.16 mg/kg, IP)) before surgery. The scalp was shaved and an incision was made along the midline of the scalp. Hemostats were used to make a pocket under the skin between the shoulder blades. The skull was scraped clean of periosteum so that the cannula pedestal would properly adhere to the skull. A micro drill (Fine Science Tools Inc., Foster City, Calif.) was used to drill a hole approximately 1.6 mm lateral and 0.6 mm caudal to bregma. The minipump was placed between the shoulder blades, the cannula was inserted in the drilled hole into the lateral ventricle, and the cannula pedestal was affixed to the skull with cyanoacrylate glue. The animals were allowed to recover on a heating pad (Fine Science Tools, Foster City, Calif.) and were returned to their cages in the animal facility for three days.
To test the degree of tolerance developed, the osmotic minipump was removed and the mice were returned to their cages for four hours. The mice were then injected with the test drug into the contralateral lateral cerebral ventricle and antinociception was measured with the tail flick test as described above.

male ICR mice [3] = test: Physical dependence: naloxone-precipitated withdrawal jumping after chronic ICV infusion; format: in vivo, mouse; conditions: for physical dependence on chronic ICV administration: 3-day ICV infusion, naloxone-precipitated jumping; for # of Jumps (SEM), naloxone-precipitated withdrawal: average jumps in 10 minutes after naloxone 1 mg/kg sc, after 3-day ICV infusion
Description: as §1, §2, §3
Testing for dependence and tolerance. The development of physical dependence was assessed by quantifying withdrawal jumping observed during precipitated withdrawal (Way et al., 1969) on the fourth day after surgery. Mice were injected with naloxone (1 mg/kg, sc) and placed into Plexiglas cylinders for 10 minutes. During those 10 minutes, vertical jumps were counted as withdrawal signs.

Row | SMILES | ED50 nmol (95% C.L.), antinociceptive potency (male ICR mice [1]) | Chronic ED50 nmol (95% C.L.) (male ICR mice [2]) | Saline ED50 nmol (95% C.L.) (male ICR mice [2]) | # of Jumps (SEM), naloxone-precipitated withdrawal (male ICR mice [3]) | Ligand ED50 pmol (95% C.L.), antinociceptive potency (male ICR mice [1]) [pmol] | other results
1 | CN1CCC23c4c5ccc(O)c4OC2C(NC(=O)COCC(=O)NCCCCNC(=O)COCC(=O)Nc2cccc4c6c([nH]c24)C2Oc4c(O)ccc7c4C24CCN(CC2CC2)C(C7)C4(O)C6)CCC3(O)C1C5 (centres unmarked) [Compound 5] | 0.95 (0.68-1.23) nmol | 4.75 (3.50-6.00) nmol | 1.29 (0.97-1.61) nmol | 8.9 (3.0) | – | tolerance on chronic ICV administration (male ICR mice [2]; listed as MDAN-18): produced tolerance; also recorded: tolerance without physical dependence developed; fold increase in ED50 value after chronic ICV infusion (male ICR mice [2]): 3.7 fold; physical dependence on chronic ICV administration (male ICR mice [3]; listed as MDAN-18): without producing dependence; also recorded: without physical dependence; # of Jumps (SEM), naloxone-precipitated withdrawal (male ICR mice [3]; listed as MDAN-18): 8.9
2 | CN1CCC23c4c5ccc(O)c4OC2C(NC(=O)COCC(=O)NCCCNC(=O)COCC(=O)Nc2cccc4c6c([nH]c24)C2Oc4c(O)ccc7c4C24CCN(CC2CC2)C(C7)C4(O)C6)CCC3(O)C1C5 (centres unmarked) [Compound 4] | 1.49 (1.04-1.95) nmol | 5.61 (4.39-6.83) nmol | 1.54 (0.89-2.20) nmol | 0.9 (0.7) | – | tolerance on chronic ICV administration (male ICR mice [2]; listed as MDAN-17): produced tolerance; also recorded: tolerance without physical dependence developed; fold increase in ED50 value after chronic ICV infusion (male ICR mice [2]): 3.6 fold; physical dependence on chronic ICV administration (male ICR mice [3]; listed as MDAN-17): without producing dependence; also recorded: without physical dependence; # of Jumps (SEM), naloxone-precipitated withdrawal (male ICR mice [3]; listed as MDAN-17): 0.94
3 | CNC(=O)COCC(=O)NCCCCCCNC(=O)COCC(=O)N[C@H]1CC[C@@]2(O)[C@H]3Cc4ccc(O)c5c4[C@@]2(CCN3C)[C@H]1O5 [Compound 13, (5α,6α)-6-{2-[(6-{2-[(Methylaminocarbonyl)-methoxy]-acetylamino}-hexylaminocarbonyl)-methoxy]-acetylamino}-4,5-epoxy-3,14-dihydroxy-17-methylmorphinan, reference compound] | – | – | – | – | 37.25 | –
4 | CNC(=O)COCC(=O)NCCNC(=O)COCC(=O)NC1CCC2(O)C3Cc4ccc(O)c5c4C2(CCN3C)C1O5 (centres unmarked) [Compound 9, reference compound] | – | – | – | – | 39.39 | –
5 | CNC(=O)COCC(=O)NCCCNC(=O)COCC(=O)NC1CCC2(O)C3Cc4ccc(O)c5c4C2(CCN3C)C1O5 (centres unmarked) [Compound 10, reference compound] | – | – | – | – | 39.69 | –
6 | CN1CCC23c4c5ccc(O)c4OC2C(NC(=O)COCC(=O)NCCCCCCNC(=O)COCC(=O)Nc2cccc4c6c([nH]c24)C2Oc4c(O)ccc7c4C24CCN(CC2CC2)C(C7)C4(O)C6)CCC3(O)C1C5 (stereo not drawn) [Compound 7, 7′-{2-[(6-{2-[({(5α,6α)-4,5-Epoxy-3,14-dihydroxy-17-methylmorphin-6-yl}-aminocarbonyl)-methoxy]-acetylamino}-hexylaminocarbonyl)-methoxy]-acetylamino}-naltrindole] | 0.17 (0.15-0.19) nmol | 0.17 (0.13-0.21) nmol | 0.17 (0.15-0.20) nmol | 0.4 (0.4) | – | tolerance on chronic ICV administration (male ICR mice [2]; listed as MDAN-20): no tolerance or dependence was observed; also recorded: produced no tolerance or physical dependence; physical dependence on chronic ICV administration (male ICR mice [3]; listed as MDAN-20): no tolerance or dependence was observed; also recorded: produced no tolerance or physical dependence
7 | CNC(=O)COCC(=O)NCCCCCCCNC(=O)COCC(=O)NC1CCC2(O)C3Cc4ccc(O)c5c4C2(CCN3C)C1O5 (centres unmarked) [Compound 14, reference compound] | – | – | – | – | 43.56 | –
